Data published in ChEMBL document CHEMBL1201862, “PubChem BioAssay data set” (2004).
Activity calls are given as the source filed them.

Tests used:
P388 = assay: cells; type: functional; conditions: Mus musculus
SN12K1 = assay: cells; type: functional; conditions: Homo sapiens
P388/ADR = assay: cells; type: functional; conditions: Mus musculus
[1] = biological target: T1, Rac GTPase-activating protein 1 (Homo sapiens, UniProt Q9H0H5); assay: blockers of MgcRacGAP-driven Rac1 GTP hydrolysis – biochemical, ADP Hunter fluorescence, primary and confirmatory, confirmation (AID 624330); type: functional
T1 sequence (Q9H0H5 whole entry): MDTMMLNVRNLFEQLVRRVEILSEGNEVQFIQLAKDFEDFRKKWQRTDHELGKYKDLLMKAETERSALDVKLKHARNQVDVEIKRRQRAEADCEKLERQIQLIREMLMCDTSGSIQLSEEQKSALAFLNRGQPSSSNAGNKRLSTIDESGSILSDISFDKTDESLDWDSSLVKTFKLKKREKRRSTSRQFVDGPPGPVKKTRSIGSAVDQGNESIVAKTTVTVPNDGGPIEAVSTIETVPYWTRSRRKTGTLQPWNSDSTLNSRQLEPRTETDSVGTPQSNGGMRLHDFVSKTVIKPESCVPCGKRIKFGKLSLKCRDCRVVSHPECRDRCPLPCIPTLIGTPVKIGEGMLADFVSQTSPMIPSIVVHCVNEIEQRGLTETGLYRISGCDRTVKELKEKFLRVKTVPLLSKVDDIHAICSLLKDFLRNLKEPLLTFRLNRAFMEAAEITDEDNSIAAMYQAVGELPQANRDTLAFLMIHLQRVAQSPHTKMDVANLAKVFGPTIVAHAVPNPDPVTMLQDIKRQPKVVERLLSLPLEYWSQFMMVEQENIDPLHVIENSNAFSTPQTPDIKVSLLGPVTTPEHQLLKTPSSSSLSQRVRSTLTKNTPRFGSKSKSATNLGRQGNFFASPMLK

[2] = Luminescence Cell-Based Dose Retest to Confirm Inhibitors of Cancer Stem Cells. [Related pubchem assays (depositor defined):AID2717, AID2721]; type: functional; conditions: Homo sapiens
[3] = viability of uninfected HEp-2 cells – cell-based, HTS, cytotoxicity control for RSV inhibitor project, dose response (AID 2410); type: functional; conditions: human respiratory syncytial virus
Cytochrome P450 1A2 = biological target: T2, Cytochrome P450 1A2 (Homo sapiens, UniProt P05177);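 also: PubChem cytochrome P450 panel assay, CYP1A2 panel member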
T2 sequence (P05177 whole entry): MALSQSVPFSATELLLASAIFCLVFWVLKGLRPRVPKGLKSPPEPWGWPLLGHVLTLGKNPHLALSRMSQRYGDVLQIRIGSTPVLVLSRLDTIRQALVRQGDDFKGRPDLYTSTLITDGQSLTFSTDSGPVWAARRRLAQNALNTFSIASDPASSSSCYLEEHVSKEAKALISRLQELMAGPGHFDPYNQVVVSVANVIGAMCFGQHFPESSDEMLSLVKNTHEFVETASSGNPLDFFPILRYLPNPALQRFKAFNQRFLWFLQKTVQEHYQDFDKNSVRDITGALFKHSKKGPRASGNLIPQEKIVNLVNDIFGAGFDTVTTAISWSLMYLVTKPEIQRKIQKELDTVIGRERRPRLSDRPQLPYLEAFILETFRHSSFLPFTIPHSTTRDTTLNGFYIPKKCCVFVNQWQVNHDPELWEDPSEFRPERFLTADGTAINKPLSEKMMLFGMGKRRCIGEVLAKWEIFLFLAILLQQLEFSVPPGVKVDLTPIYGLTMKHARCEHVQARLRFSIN

cells = type: functional
INS1 = assay: INS-1E survival protection against cytokine death – cell-based, luminescence, retest, dose response (AID 449756); type: functional; conditions: Rattus norvegicus;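 also: cell death triggered by IL-1 beta plus TNF-alpha plus IFN-gamma mixture; protective hits raise ATP signal compared with cytokine alone wells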
Cytochrome P450 3A4 = Cytochrome P450 3A4 (Homo sapiens, UniProt P08684);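 also: CYP3A4 tested as one member of a cytochrome P450 panel screen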
Sequence of Cytochrome P450 3A4 (P08684 whole entry): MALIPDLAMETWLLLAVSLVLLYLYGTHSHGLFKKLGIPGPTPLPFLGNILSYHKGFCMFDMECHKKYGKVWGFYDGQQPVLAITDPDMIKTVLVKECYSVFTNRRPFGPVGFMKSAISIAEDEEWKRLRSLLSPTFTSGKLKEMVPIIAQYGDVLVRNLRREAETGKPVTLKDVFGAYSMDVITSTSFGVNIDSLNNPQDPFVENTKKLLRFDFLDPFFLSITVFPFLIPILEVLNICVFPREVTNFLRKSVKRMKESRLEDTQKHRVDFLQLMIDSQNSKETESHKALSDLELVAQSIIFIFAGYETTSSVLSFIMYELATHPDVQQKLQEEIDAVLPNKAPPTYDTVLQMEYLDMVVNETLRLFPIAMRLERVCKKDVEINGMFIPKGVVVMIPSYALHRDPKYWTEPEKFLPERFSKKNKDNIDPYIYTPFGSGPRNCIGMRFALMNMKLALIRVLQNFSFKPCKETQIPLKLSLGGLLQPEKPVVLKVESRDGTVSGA

Cytochrome P450 2D6 = Cytochrome P450 2D6 (Homo sapiens, UniProt P10635);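 also: CYP2D6 member of a cytochrome P450 panel assay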
Sequence of Cytochrome P450 2D6 (P10635 whole entry): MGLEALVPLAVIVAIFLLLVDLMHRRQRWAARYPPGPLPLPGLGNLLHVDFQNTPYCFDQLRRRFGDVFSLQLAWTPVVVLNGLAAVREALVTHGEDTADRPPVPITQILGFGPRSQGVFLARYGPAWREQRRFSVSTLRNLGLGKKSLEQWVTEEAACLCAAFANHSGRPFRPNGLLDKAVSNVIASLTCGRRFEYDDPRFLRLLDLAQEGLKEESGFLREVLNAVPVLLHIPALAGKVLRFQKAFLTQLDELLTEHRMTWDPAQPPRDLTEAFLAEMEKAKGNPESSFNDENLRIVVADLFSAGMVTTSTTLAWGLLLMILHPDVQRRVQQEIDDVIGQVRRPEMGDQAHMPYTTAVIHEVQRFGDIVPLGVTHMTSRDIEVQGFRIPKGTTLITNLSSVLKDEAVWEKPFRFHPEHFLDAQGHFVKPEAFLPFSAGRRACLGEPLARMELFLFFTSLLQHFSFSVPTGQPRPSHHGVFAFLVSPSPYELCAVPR

[4] = biological target: T3, Corticotropin-releasing factor receptor 2/Corticotropin-releasing factor-binding protein (Homo sapiens, UniProt P24387+Q13324); assay: activators of CRF receptor 2 with binding protein – uHTS hits, confirmation (AID 602473); type: functional; conditions: read-out: EC50_Mean
T3 sequence (Q13324 whole entry): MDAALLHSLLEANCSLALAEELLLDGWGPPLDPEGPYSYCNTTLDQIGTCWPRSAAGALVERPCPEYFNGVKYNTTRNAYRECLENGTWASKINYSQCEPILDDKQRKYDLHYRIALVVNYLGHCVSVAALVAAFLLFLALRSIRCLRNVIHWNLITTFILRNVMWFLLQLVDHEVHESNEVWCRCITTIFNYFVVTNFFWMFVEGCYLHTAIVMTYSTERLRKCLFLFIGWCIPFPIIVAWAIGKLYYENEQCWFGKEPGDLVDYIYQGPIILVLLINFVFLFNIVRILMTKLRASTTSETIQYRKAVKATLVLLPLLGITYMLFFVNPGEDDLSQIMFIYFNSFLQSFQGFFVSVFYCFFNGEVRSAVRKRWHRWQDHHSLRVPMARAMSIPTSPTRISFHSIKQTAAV
T3 sequence (P24387 whole entry): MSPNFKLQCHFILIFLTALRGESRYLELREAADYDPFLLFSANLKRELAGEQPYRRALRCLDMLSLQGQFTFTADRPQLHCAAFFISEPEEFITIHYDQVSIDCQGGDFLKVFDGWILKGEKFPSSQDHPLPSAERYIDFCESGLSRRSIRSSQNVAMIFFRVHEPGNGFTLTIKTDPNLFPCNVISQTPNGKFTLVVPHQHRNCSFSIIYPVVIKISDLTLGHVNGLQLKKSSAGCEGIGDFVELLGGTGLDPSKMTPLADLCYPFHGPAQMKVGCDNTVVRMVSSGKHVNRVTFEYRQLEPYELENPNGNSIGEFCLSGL

[5] = biological target: T3, Corticotropin-releasing factor receptor 2/Corticotropin-releasing factor-binding protein; assay: Dose Response confirmation of uHTS hits for small molecule antagonists of the CRF-binding protein and CRF-R2 receptor complex.; type: functional; conditions: read-out: IC50_Mean

## Nc1ncnc2c1ncn2[C@@H]1O[C@H](COP(=O)(O)O)[C@@H](O)[C@@H]1O
P388
  GI50: > 7.93 µM (inactive)
SN12K1
  GI50: > 50 µM (inactive)
P388/ADR
  GI50: > 16.1 µM (inactive)

## Nc1ccc2[nH]c3c(-c4ccccc4)nccc3c2c1
P388
  GI50: 6.21 µM (inactive)
SN12K1
  GI50: 22.3 µM (inactive)
P388/ADR
  GI50: 19.9 µM (inactive)

## CCCCOc1ccc(NC(=O)CN2CCN(CC)CC2)cc1
[1]
  IC50: 71.7 µM (active)

## Cc1csc(N/N=C/c2ccccn2)n1
[2]
  AC50: 11.2 µM (active)

## CN=C(S)NNC(=O)COc1cccc(C)c1C
[3]
  CC50: 48.9 µM (active)

## C/C(=C\c1ccc(C(=O)O)cc1)c1ccc2c(c1)C(C)(C)CCC2(C)C
Cytochrome P450 1A2
  AC50: 31.6 µM (inconclusive)
[2]
  AC50: 3.1 µM (active)

## Cc1ccc(/N=N/c2c(C)[nH]n(C(N)=S)c2=O)cc1
cells
  IC50: 5.24 µM (active)

## C/C(N)=C(/C#N)C(=O)COC(=O)c1cc(-c2cccc3ccccc23)nc2ccccc12
[3]
  CC50: 7.25 µM (active)

## C[C@@H]1O[C@@H](O[C@H]2CC[C@]3(C=O)[C@H]4CC[C@]5(C)[C@@H](c6ccc(=O)oc6)CC[C@]5(O)[C@@H]4CC[C@]3(O)C2)[C@H](O)[C@H](O)[C@H]1O[C@@H]1O[C@H](CO)[C@@H](O)[C@H](O)[C@H]1O [HELLEBRIN]
P388
  GI50: 64.7 µM (inactive)
SN12K1
  GI50: 0.0375 µM (active)
P388/ADR
  GI50: 113 µM (inactive)

## CCCCOC(=O)Cn1c(-c2ccccc2)nc2ccccc2c1=O
cells
  IC50: 12.7 µM (active)

## CC1C(O)C2(Oc3cc4c(c5c3[C@@H](CC5O)[C@H]2C)CCC2Cc3nc5c(nc3C[C@@]42C)CC2CCC3C4=C[C@H]6O[C@@]7(O[C@@](C)(CO)C[C@@H]7O)C(C)[C@@]6(O)[C@]4(C)[C@@H](O)CC3[C@]2(C)C5)OC1(C)C (stereo not given in full)
P388
  GI50: 0.0278 µM (active)
SN12K1
  GI50: 0.0278 µM (active)
P388/ADR
  GI50: 0.52 µM (active)

## CCOC(=O)c1ccc(N[C@@H]2c3cc4c(cc3C(c3cc(OC)c(O)c(OC)c3)[C@H]3C(=O)OCC32)OCO4)cc1O (stereo not given in full)
P388
  GI50: < 0.01 µM (active)
SN12K1
  GI50: 0.0887 µM (active)
P388/ADR
  GI50: 0.227 µM (active)

## COC(=O)c1cc(NC(S)=NCc2ccc(Cl)cc2)cc(C(=O)OC)c1
[3]
  CC50: 26.3 µM (active)

## COc1cc(OC)cc(-c2c(-c3cccs3)c3cc(-c4cc[nH]n4)ccc3n2C)c1
[3]
  CC50: 11.9 µM (active)

## C=C1C(=O)C[C@@]23CCC[C@@]12CC(O)C3 (stereo not given in full)
P388
  GI50: 3.61 µM (inactive)
SN12K1
  GI50: 17 µM (inactive)
P388/ADR
  GI50: 5.15 µM (inactive)

## O=C(NCc1ccncc1)c1cc(-c2ccc(Cl)cc2)oc1C(F)(F)F
INS1
  AC50: 18.6 µM (active)

## Cc1cc(C)cc(Oc2cc(NC(=O)c3cn(C)nc3C)cc([N+](=O)[O-])c2)c1
INS1
  AC50: 13.5 µM (active)

## CCOc1ccc(CN2CCN(Cc3c[nH]c4ccccc34)CC2)cc1
INS1
  AC50: 7.24 µM (active)
[1]
  IC50: 93 µM (active)

## Cc1ccc(N(Cc2ccc([N+](=O)[O-])cc2)C(=O)c2ccco2)cc1
Cytochrome P450 3A4
  AC50: 28.2 µM (inconclusive)
Cytochrome P450 2D6
  AC50: 0.562 µM (inconclusive)
[4]
  EC50: > 53 µM (inactive)
[5]
  IC50: > 47.1 µM (inactive)

## COc1ccc2[nH]c3ccc4cc[n+](CCN5CCC(C6CCN(CC[n+]7ccc8ccc9[nH]c%10ccc(OC)cc%10c9c8c7)CC6)CC5)cc4c3c2c1
P388
  GI50: 0.546 µM (active)
SN12K1
  GI50: 0.417 µM (active)
P388/ADR
  GI50: 1.84 µM (inactive)

## CCCCC(C)C1CCC2(C)C=CC(=O)C(C)=C2C1O (stereo not given)
P388
  GI50: > 100 µM (inactive)
SN12K1
  GI50: > 100 µM (inactive)
P388/ADR
  GI50: > 100 µM (inactive)

## Cc1c2ccnc(-c3ccccc3)c2cc2c1[nH]c1ccccc12
P388
  GI50: 2.9 µM (inactive)
SN12K1
  GI50: 1.39 µM (inactive)
P388/ADR
  GI50: 2.63 µM (inactive)

## C=CCN(C(=O)Cn1nc(C)n2c(cc3cc(C)ccc32)c1=O)c1ccccc1
[3]
  CC50: > 50 µM (active)

## CC(=O)N1CCN(CC(O)COc2ccc(Br)cc2)CC1 (stereo not given)
[1]
  IC50: 159 µM (active)

## O=NN(CCCl)C(=O)NC1CCSc2ccccc21 (stereo not given)
P388
  GI50: 21.1 µM (inactive)
SN12K1
  GI50: > 100 µM (inactive)
P388/ADR
  GI50: 27.9 µM (inactive)

## C/C(=N\Nc1nc(C)cc(-c2ccccc2)n1)c1ccccc1
INS1
  AC50: 2.37 µM (active)

## FC(F)(F)c1ccccc1N=C(S)N1CCc2ccccc2C1
INS1
  AC50: 8.78 µM (active)

## Cc1ccc(CNC(=O)c2cc(-c3ccccc3C)n(CC3CC(c4cccc([N+](=O)[O-])c4)=NO3)n2)cc1 (stereo not given)
[4]
  EC50: > 53 µM (inactive)
[5]
  IC50: > 47.1 µM (inactive)

## Cc1nc(-c2ccccc2)sc1C(=O)/C=C/c1ccc(Cl)cc1
[2]
  AC50: 4.89 µM (active)

## COc1cccc2c1C(=O)c1c(O)c3c(c(O)c1C2=O)C[C@@](O)(/C(C)=N/NC(=O)c1ccccc1)C[C@@H]3OC1CC(N)C(O)C(C)O1 (stereo not given in full)
P388
  GI50: 0.132 µM (active)
SN12K1
  GI50: 0.0586 µM (active)
P388/ADR
  GI50: 5.61 µM (inactive)

## COc1cccc(OC)c1NC(=O)CN1CCN(C)CC1
[1]
  IC50: 100 µM (active)

## O=C(N/N=C/c1ccccc1Cl)C1CC1
[4]
  EC50: > 53 µM (inactive)
[5]
  IC50: > 47.1 µM (inactive)

## Oc1[nH]ncc1/C=N/c1ccc(Cl)cc1
[4]
  EC50: > 53 µM (inactive)
[5]
  IC50: > 47.1 µM (inactive)

## CCSc1ccc(NC(=O)c2cccnc2)cc1
INS1
  AC50: 7.23 µM (active)

## CCOC(=O)c1ccc(NC(=O)c2cccnc2)cc1
INS1
  AC50: 3.75 µM (active)

## COc1cc(C=C2C(=O)NC(=O)NC2=O)ccc1OCc1ccc([N+](=O)[O-])cc1
[1]
  IC50: 158 µM (active)

## [N-]=[N+]=CC(=O)OCC(N)C(=O)O (stereo not given)
P388
  GI50: 0.156 µM (active)
SN12K1
  GI50: 0.206 µM (active)
P388/ADR
  GI50: 0.352 µM (active)

## N#CC1=C(N)Oc2cc(O)c(/C=N/c3ccccc3)cc2C1c1ccccc1 (stereo not given)
[3]
  CC50: 9.1 µM (active)

## CCOC(=O)c1c(-c2ccccc2)csc1NC(=O)C(C)NCCCN1CCOCC1 (stereo not given)
[1]
  IC50: 86.1 µM (active)

## CC(Sc1nnnn1-c1ccccc1)C(=O)Nc1ccccc1-c1ccccc1 (stereo not given)
[4]
  EC50: > 53 µM (inactive)
[5]
  IC50: > 47.1 µM (inactive)

## COc1ccccc1-n1cnnc1SCC(=O)NCc1cccs1
[4]
  EC50: > 53 µM (inactive)
[5]
  IC50: > 47.1 µM (inactive)

## CCc1ccc(NC(=O)c2cc3c(C)nc4ccccc4c3o2)cc1
[2]
  AC50: 6.51 µM (active)
[3]
  CC50: 39.6 µM (active)

## CC(=O)OCC1OC(n2cc(F)c(=O)[nH]c2=O)C(NC(=O)OCc2ccccc2)C(OC(C)=O)C1OC(C)=O (stereo not given)
P388
  GI50: > 100 µM (inactive)
SN12K1
  GI50: > 100 µM (inactive)
P388/ADR
  GI50: > 100 µM (inactive)
